In ChEMBL document CHEMBL1130862, “Synthesis and acetylcholinesterase inhibitory activity of (+/-)-14-fluorohuperzine A” (Bioorg Med Chem Lett, 1998):
pIC50: −log10 of the molar value.

Biological target: T1, Acetylcholinesterase (Rattus norvegicus, UniProt P37136)
T1 sequence (P37136 whole entry): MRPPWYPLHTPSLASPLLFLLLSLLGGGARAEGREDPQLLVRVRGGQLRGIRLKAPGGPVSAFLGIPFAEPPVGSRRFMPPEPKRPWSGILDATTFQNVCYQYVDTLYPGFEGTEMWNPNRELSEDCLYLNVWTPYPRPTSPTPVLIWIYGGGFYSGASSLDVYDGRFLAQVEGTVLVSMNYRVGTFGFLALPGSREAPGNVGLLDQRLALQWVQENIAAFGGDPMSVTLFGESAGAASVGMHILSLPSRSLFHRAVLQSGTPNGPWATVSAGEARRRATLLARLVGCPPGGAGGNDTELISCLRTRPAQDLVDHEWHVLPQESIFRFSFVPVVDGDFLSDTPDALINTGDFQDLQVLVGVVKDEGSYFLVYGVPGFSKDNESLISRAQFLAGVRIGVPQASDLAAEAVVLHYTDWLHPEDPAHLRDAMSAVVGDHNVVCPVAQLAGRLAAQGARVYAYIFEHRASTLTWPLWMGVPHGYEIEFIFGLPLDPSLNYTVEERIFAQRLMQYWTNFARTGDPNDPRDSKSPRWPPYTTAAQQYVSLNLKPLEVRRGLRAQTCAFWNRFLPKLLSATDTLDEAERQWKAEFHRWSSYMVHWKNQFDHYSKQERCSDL
Experiment: In vitro inhibitory activity against Acetylcholinesterase (AChE) using rat brain hippocampal crude homogenates.
Assay type: tissue-based, Hippocampus

CC1=CC2Cc3nc(O)ccc3C(N)(C1)/C2=C/CF (stereo unspecified)
pIC50: 5.00
